Holding throughout (assay): NCI-60 cell line screen, 48 h
For assay [1], the system named is SK-MEL-28 melanoma.
Assay [2] has as its system LXFL 529 NSCLC.
Assay [3] concerns SK-MEL-5 melanoma.
Assay [4] concerns SK-MEL-2 melanoma.
The test system of assay [5] is K-562 leukemia.
For assay [6], the system named is RPMI-8226 leukemia.
The test system of assay [7] is HCC-2998 colon.
In assay [8] the test system is OVCAR-8 ovarian.
Assay [9] has as its system HCT-116 colon.
Assay [10] concerns HL-60(TB) leukemia.
Assay [11] relates to M14 melanoma.
Assay [12] has as its system TK-10 renal.
For assay [13], the system named is UACC-62 melanoma.
Assay [14] concerns HOP-92 NSCLC.
For assay [15], the system named is KM12 colon.
The test system of assay [16] is IGROV1 ovarian.
The test system of assay [17] is EKVX NSCLC.
In assay [18] the test system is NCI-H23 lung.
Assay [19] has as its system M19-MEL melanoma.
The test system of assay [20] is SNB-75 CNS.

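Protocol summary: plate cells (96-well), add compound at 5 concentrations, incubate 48 h, interpolate endpoints linearly. TGI marks complete inhibition of growth.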

Consider `COC(=O)C1=C(C)N2CCCOC2(C)C(C(=O)OC)C1c1cccc(Cl)c1` (stereo not given), for which the TGI in assay [1] is greater than 100 µM; in [2], 74.6 µM; in assay [3] it was greater than 100 µM; in [4], 36.6 µM; in [5], greater than 100 µM; in assay [6], 52.1 µM. The TGI in [7] is greater than 100 µM; in assay [8], 87.9 µM; in assay [9] it was greater than 100 µM; in [10] it was 58.4 µM; in assay [11] it was 74.7 µM; in [12] it was greater than 100 µM. Besides, the TGI in assay [13] is 36.5 µM; in assay [14], 73.9 µM; in [15], 43.9 µM; in assay [16], greater than 100 µM; in assay [17] it was 89.3 µM; in assay [18], greater than 100 µM. For the same molecule, the TGI in assay [19] came out at 54.3 µM; in [20], 42.3 µM.

Values taken from PubChem BioAssay (NCI).
